For assay [1], the target named is Recombinant human Menin protein (2-610) / MLL polypeptide binding (Homo sapiens (Human), UniProt O00255). Put plainly: Menin and MLL protein binding at a molecular level (fluorescence polarization method). The settings on record: inhibition of Menin / MLL polypeptide binding. The text has this: Example 3: Determination of the Activity of the Compounds of the Present Invention on Menin and MLL Protein Binding at a Molecular Level (Fluorescence Polarization Method)
1. Reagents, Materials and Instruments:
• Recombinant human Menin protein (2-610): ChemPartner, CP2021020801; • MLL polypeptide (6-FAM-Ahx-SG-40): GL Biochem, 865700; • Trizma® hydrochloride buffer solution (Tris): Sigma, T2194-1 L; • NaCl: Invitrogen, AM9760G; • TCEP: Sigma, 646547; • DMSO: Sigma, D4540; • 384-well plate: Corning, 4514; • Envision: PerkinElmer.
2. Preparation of Reaction Solutions
• 1) Buffer solution: 20 mL of Tris and 4 mL of NaCl were added respectively to 376 mL of ddH2O, with pH adjusted to 7.5, and TCEP was added before testing with a dilution ratio of 1:500. • 2) 5× test compounds: the test compound was subjected to gradient dilution with the buffer solution to 5-fold the reaction concentration, so that the final concentrations of the compound were 1.000, 0.333, 0.111, 0.037, 0.012, 0.004, 0.001 and 0.0005 μM, respectively. • 3) 2.5× Menin protein reaction solution: the Menin protein was diluted to 5 nM with the buffer solution. • 4) 2.5×MLL polypeptide reaction solution: the MLL polypeptide was diluted to 5 nM with the buffer solution.
1) Binding Reaction (20 μL System)
4 μL of 5× test compound was added to each reaction well of the 384-well plate, and the corresponding volume of 10% DMSO was added to the control wells. Except the control wells, 8 μL of Menin protein reaction solution was added to each well. The reaction solution was incubated at room temperature for 30 minutes, and then 8 μL of MLL polypeptide reaction solution was added to each well. The final concentrations of DMSO in the test compound wells and control wells were all 2%. The 384-well plate was sealed and incubated at room temperature for 30 minutes in the dark.
Three control groups were set up: • a blank control group only containing a buffer solution; • a negative control group only containing MLL polypeptide reaction solution; and • a positive control group containing Menin protein reaction solution and MLL polypeptide reaction solution.
The vertical polarization S value and the horizontal polarization P value (excitation wavelength was 480 nm, and emission wavelength was 535 nm) were measured with Envision.
Corrected S is the S value of the negative control group—the S value of the blank control group
Corrected P is the P value of the negative control group—the P value of the blank control group
(§1) • calculated by using software XL-Fit™ (version 5.3) supplied by ID Business Solutions (Guildford, UK), which is an additional software to Microsoft Excel.
(Fluorescence polarisation rises when a labelled molecule tumbles more slowly, as on binding a larger partner.)

The test system of assay [2] is MV-4-11 cells (human acute myelogenous leukemia cell line carrying MLL-AF4 mutation). In words: Cell proliferation assay, MV-4-11 (CellTiter-Glo). The settings on record: Homo sapiens, MV4-11, 72 h, MV-4-11 cells, 3 days treatment, CellTiter-Glo; read-out: GI50. Type of assay: cell-based. The protocol:
Example 4 Cell Proliferation Assay
MV-4-11 (ATCC, CRL-9591), a human acute myelogenous leukemia cell line carrying MLL-AF4 mutation. Cells were cultured in an IMDM medium containing 10% heat-inactivated fetal bovine serum (HIFBS) and supplemented with 50 μM β-mercaptoethanol.
2. Reagents, Materials and Instruments:
• IMDM culture solution: GIBCO, 12440-053; • HIFBS: GIBCO, 10100-147; • β-mercaptoethanol: Sigma, M3148; • CellTiter-Glo® 2.0 assay kit (CTG): Promega, G9243; • DMSO: Sigma, D4540; • 96-well cell culture plate: Corning, 3903; • Envision: PerkinElmer.
MV-4-11 cells were resuspended in a medium, added to a 96-well plate at a density of 3000 cells/well with a volume of 100 μL/well, and cultured in a cell incubator at 5% CO2 and 37° C. for 4 hours. The test compound subjected to gradient dilution with the medium was added to a cell culture plate, and the final concentrations of the compound were 1.100, 0.367, 0.122, 0.041, 0.014, 0.005, 0.002 and 0.001 μM, respectively. The corresponding volume of DMSO diluent was added to a blank control well, and the final concentrations of DMSO in the experimental group and control group were both 0.1%. The cell plate was placed in a cell incubator at 5% CO2 and 37° C. and cultured for 3 days.
On day 0 and day 3 of the treatment, 50 μL/well CTG reagent was added to the cell plate and shaken at room temperature in the dark for 10 min, and then the chemiluminescence value of each well was measured with Envision.
[formula] • wherein: • luminescence valuetest sample: the chemiluminescence value of a cell well treated with the test compound for 3 days. • luminescence valueday 0: the chemiluminescence value of a cell well at day 0. • luminescence valuecell well: the chemiluminescence value of a cell well not treated with the compound for 3 days.
as §1
On the technique in general: ATP-based viability assays read luminescence as a measure of living cells.

Molecules are shown by their SMILES.

Recombinant human Menin protein (2-610) / MLL polypeptide binding, sequence (O00255 2-610): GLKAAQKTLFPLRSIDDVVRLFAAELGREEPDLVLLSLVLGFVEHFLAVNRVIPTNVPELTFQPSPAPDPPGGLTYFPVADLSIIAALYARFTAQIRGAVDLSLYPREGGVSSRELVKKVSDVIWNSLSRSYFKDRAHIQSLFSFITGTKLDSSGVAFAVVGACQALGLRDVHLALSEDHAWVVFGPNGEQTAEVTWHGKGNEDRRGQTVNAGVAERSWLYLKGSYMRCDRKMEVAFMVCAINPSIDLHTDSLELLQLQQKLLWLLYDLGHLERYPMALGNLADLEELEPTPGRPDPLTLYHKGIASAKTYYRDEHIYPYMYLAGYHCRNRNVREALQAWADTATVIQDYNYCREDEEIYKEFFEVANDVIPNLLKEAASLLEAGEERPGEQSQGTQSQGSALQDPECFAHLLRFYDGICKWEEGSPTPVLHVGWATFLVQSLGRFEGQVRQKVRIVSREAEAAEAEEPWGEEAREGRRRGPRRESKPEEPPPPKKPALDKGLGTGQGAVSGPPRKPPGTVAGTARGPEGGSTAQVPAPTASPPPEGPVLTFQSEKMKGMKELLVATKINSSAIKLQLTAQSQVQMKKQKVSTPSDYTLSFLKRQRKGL

Take `CCN(C(=O)c1cc(F)ccc1Oc1nncnc1N1CC2(CCN(CC3CCN(c4ccn5ncnc5c4)CC3)CC2)C1)C(C)C` [Compound 55, 2-((5-(7-((1-([1,2,4]triazolo[1,5-a]pyridin-7-yl)piperidin-4-yl)methyl)-2,7-diazaspiro[3.5]nonan-2-yl)-1,2,4-triazin-6-yl)oxy)-N-ethyl-5-fluoro-N-isopropylbenizamide]: the IC50 (commonly the concentration needed to halve the response being measured) in assay [1] amounted to 3.5 nM. Further, the concentration for 50% growth inhibition (GI50) (commonly the concentration giving 50% growth inhibition) in assay [2] was determined as 4 nM.
For `CCN(C(=O)c1cc(F)ccc1Oc1nncnc1N1CC2(CCN(CC3CCN(c4ccc5ncnn5c4)CC3)CC2)C1)C(C)C` [Compound 56] the same measures were 28.4 nM and 45 nM.
For `CCN(C(=O)c1cc(F)ccc1Oc1nncnc1N1CC2(CCN(CC3CCN(c4ccccn4)CC3)CC2)C1)C(C)C` [Compound 57, N-ethyl-5-fluoro-N-isopropyl-2-((5-(7-((1-(pyridin-2-yl)piperidin-4-yl)methyl)-2,7-diazaspiro[3.5]nonan-2-yl)-1,2,4-triazin-6-yl)oxy)benzamide] the same measures were 3 nM and 5 nM.
Regarding `CCN(C(=O)c1cc(F)ccc1Oc1nncnc1N1CC2(CCN(Cc3c(C)cc(C)[nH]c3=O)CC2)C1)C(C)C` [Compound 58], the half-inhibitory concentration (IC50) in assay [1] came to 114 nM. In assay [2], the GI50 stood at 230 nM.
The like results for `CCN(C(=O)c1cc(F)ccc1Oc1nncnc1N1CC2(CCN(Cc3ccc(Cl)nc3)CC2)C1)C(C)C` [Compound 59] were, in that order, > 1000 nM and > 3300 nM.
`CCN(C(=O)c1cc(F)ccc1Oc1nncnc1N1CC2(CCN(Cc3cnc(OC)c(Cl)c3C)CC2)C1)C(C)C` [Compound 60]: the IC50 in assay [1] turned out to be 574 nM. Also, the 50% growth inhibitory concentration (GI50) in assay [2] came to 693 nM.
For `CCN(C(=O)c1cc(F)ccc1Oc1nncnc1N1CC2(CCN(Cc3ccc(NCC#N)cc3C)CC2)C1)C(C)C` [Compound 61] the same measures were 89.4 nM and 110 nM.
For `CCN(C(=O)c1cc(F)ccc1Oc1nncnc1N1CC2(CCN(Cc3ccc4[nH]ccc4c3)CC2)C1)C(C)C` [Compound 62] the same measures were 324 nM and 193 nM.
The like results for `CCN(C(=O)c1cc(F)ccc1Oc1nncnc1N1CC2(CCN(Cc3ccc4[nH]ncc4c3)CC2)C1)C(C)C` [Compound 64] were, in that order, 163 nM and 226 nM.
`CCN(C(=O)c1cc(F)ccc1Oc1nncnc1N1CC2(CCN(Cc3ccc4[nH]c(C#N)cc4c3C)CC2)C1)C(C)C` [Compound 66]: the IC50 in assay [1] was 1.2 nM. Moreover, the GI50 in assay [2] came out at 3 nM.
As to `CCN(C(=O)c1cc(F)ccc1Oc1nncnc1N1CC2(CCN(Cc3ccc4oc(C)nc4c3)CC2)C1)C(C)C` [Compound 67], the IC50 in assay [1] is 512 nM. Moreover, the GI50 in assay [2] was determined as 309 nM.
As to `CCN(C(=O)c1cc(F)ccc1Oc1nncnc1N1CC2(CCN(Cc3ccc4oc(C)cc4c3)CC2)C1)C(C)C` [Compound 68], in assay [1], the IC50 was found to be 50.2 nM. The GI50 in assay [2] was 71 nM.
Consider `CCN(C(=O)c1cc(F)ccc1Oc1nncnc1N1CC2(CCN(Cc3ccc4oc(C#N)cc4c3)CC2)C1)C(C)C` [Compound 69], for which the IC50 in assay [1] worked out at 8.5 nM. Moreover, the GI50 in assay [2] amounted to 16 nM.
Take `CCN(C(=O)c1cc(F)ccc1Oc1nncnc1N1CC2(CCN(Cc3ccc4nc(OC)ncc4c3)CC2)C1)C(C)C` [Compound 70]: the IC50 in assay [1] is > 1000 nM. For the same compound, in assay [2], the GI50 was 2150 nM.
The like results for `CCN(C(=O)c1cc(F)ccc1Oc1nncnc1N1CC2(CCN(Cc3ccc4nc(C)ncc4c3)CC2)C1)C(C)C` [Compound 71] were, in that order, > 1000 nM and 1280 nM.
For `CCN(C(=O)c1cc(F)ccc1Oc1nncnc1N1CC2(CCN(Cc3ccc4[nH]c(=O)ccc4c3)CC2)C1)C(C)C` [Compound 72] the same measures were 28 nM and 81 nM.
For `CCN(C(=O)c1cc(F)ccc1Oc1nncnc1N1CC2(CCN(Cc3cnc4c(c3)OC[C@H](c3ccc(OC)nc3)O4)CC2)C1)C(C)C` [Compound 73] the same measures were > 1000 nM and 1270 nM.
For the compound `CCN(C(=O)c1cc(F)ccc1Oc1nncnc1N1CC2(CCN(Cc3ccc4oc(C(=O)NC)cc4c3)CC2)C1)C(C)C` [Compound 74], the IC50 in assay [1] stood at 418 nM. In addition, in assay [2], the GI50 amounted to 176 nM.
Turning to `CCN(C(=O)c1cc(F)ccc1Oc1nncnc1N1CC2(CCN(Cc3ccc4oc(C(=O)NC)c(C)c4c3)CC2)C1)C(C)C` [Compound 75], the IC50 in assay [1] was found to be 955 nM. Further, the GI50 in assay [2] turned out to be 883 nM.
The like results for `C[C@H]1CN(C)CCN1C(=O)c1cc(F)ccc1Oc1nncnc1N1CC2(CCN(CC3CCN(c4ccccn4)CC3)CC2)C1` [Compound 76] were, in that order, 878 nM and 932 nM.
The like results for `C[C@H]1COCCN1C(=O)c1cc(F)ccc1Oc1nncnc1N1CC2(CCN(CC3CCN(c4ccccn4)CC3)CC2)C1` [Compound 77] were, in that order, 73.8 nM and 60 nM.
The like results for `CCN(C(=O)c1cc(F)ccc1Oc1nncnc1N1CC2(CCN(CC3CCN(c4ncccn4)CC3)CC2)C1)C(C)C` [Compound 78] were, in that order, 28.8 nM and 20 nM.
Regarding `CCN(C(=O)c1cc(F)ccc1Oc1nncnc1N1CC2(CCN(CC3CCN(c4ccn(C)n4)CC3)CC2)C1)C(C)C` [Compound 79], the IC50 in assay [1] amounted to 57.7 nM. The GI50 in assay [2] is 78 nM.
The like results for `CCN(C(=O)c1cc(F)ccc1Oc1nncnc1N1CC2(CCN(CC3CCN(c4nc(C#N)co4)CC3)CC2)C1)C(C)C` [Compound 80] were, in that order, 6.6 nM and 16 nM.
Take `CCN(C(=O)c1cc(F)ccc1Oc1nncnc1N1CC2(CCN(CC3CCN(c4ccc(=O)n(C)n4)CC3)CC2)C1)C(C)C` [Compound 81]: in assay [1], the IC50 turned out to be 54.9 nM. Also, the GI50 in assay [2] was found to be 117 nM.
For `CCN(C(=O)c1cc(F)ccc1Oc1nncnc1N1CC2(CCN(CC3CCN(c4ccn5nccc5n4)CC3)CC2)C1)C(C)C` [Compound 82], in assay [1], the IC50 was found to be 2.6 nM. Besides, the GI50 in assay [2] came out at 7 nM.
For `CCN(C(=O)c1cc(F)ccc1Oc1nncnc1N1CC2(CCN(CC3CCN(c4ccc(C)nn4)CC3)CC2)C1)C(C)C` [Compound 84] the same measures were 0.9 nM and 2 nM.
For `CCN(C(=O)c1cc(F)ccc1Oc1nncnc1N1CC2(CCN(CC3CCN(c4cc(C)cnn4)CC3)CC2)C1)C(C)C` [Compound 85] the same measures were 4.2 nM and 6 nM.
With `Cc1ccc(N2CCC(CN3CCC4(CC3)CN(c3ncnnc3Oc3ccc(F)cc3-c3ccnn3C(C)C)C4)CC2)nn1` [Compound 86], the IC50 in assay [1] was 1.1 nM. Moreover, the GI50 in assay [2] was 6 nM.
For `CCN(C(=O)c1cc(F)ccc1Oc1nncnc1N1CC2(CCN(CC3CCN(c4ccc(N)nn4)CC3)CC2)C1)C(C)C` [Compound 87] the same measures were 37.2 nM and 156 nM.
For `CCN(C(=O)c1cc(F)ccc1Oc1nncnc1N1CC2(CCN(CC3CCN(c4ccc(OC)nn4)CC3)CC2)C1)C(C)C` [Compound 88] the same measures were 1.1 nM and 4 nM.

Source of the values: US20260055108A1, “TRIAZINE COMPOUNDS AND USES THEREOF” (HUTCHMED LIMITED, priority 2022, published 2026).
